Results as given in PubChem BioAssay (NCI).
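Each compound was tested at five concentrations against cells in 96-well plates for 48 hours. GI50: concentration for 50% inhibition of growth. Definition used: TGI = concentration required for complete inhibition of growth.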

Columns and labels:
Assay in all cases: NCI anticancer screen, dose series, 48 h
SR leukemia = system: SR leukemia
SK-OV-3 ovarian = system: SK-OV-3 ovarian
MDA-MB-435 = system: MDA-MB-435
A549 NSCLC = system: A549 NSCLC
OVCAR-5 ovarian = system: OVCAR-5 ovarian
MCF7 breast = system: MCF7 breast
CAKI-1 renal = system: CAKI-1 renal
NCI-H460 lung = system: NCI-H460 lung
SK-MEL-2 melanoma = system: SK-MEL-2 melanoma
T-47D breast = system: T-47D breast
HOP-92 NSCLC = system: HOP-92 NSCLC
UACC-62 melanoma = system: UACC-62 melanoma
SN12C renal = system: SN12C renal
SF-295 CNS = system: SF-295 CNS
DU-145 prostate = system: DU-145 prostate
HT29 colon = system: HT29 colon
M14 melanoma = system: M14 melanoma
SNB-75 CNS = system: SNB-75 CNS
HCC-2998 colon = system: HCC-2998 colon
OVCAR-3 ovarian = system: OVCAR-3 ovarian
RPMI-8226 leukemia = system: RPMI-8226 leukemia
K-562 leukemia = system: K-562 leukemia
COLO 205 colon = system: COLO 205 colon
HS 578T breast = system: HS 578T breast
786-0 renal = system: 786-0 renal
PC-3 prostate = system: PC-3 prostate
BT-549 breast = system: BT-549 breast
KM12 colon = system: KM12 colon
A498 renal = system: A498 renal

Cn1ccnc1C(=O)/C=C/c1ccc(NC(=O)Nc2ccccc2)cc1
GI50 (SR leukemia): 4.9 µM
TGI (SR leukemia): 75.3 µM
GI50 (SK-OV-3 ovarian): 32.5 µM
TGI (SK-OV-3 ovarian): > 100 µM
GI50 (MDA-MB-435): 21.6 µM
TGI (MDA-MB-435): 58.3 µM
GI50 (A549 NSCLC): 21.8 µM
TGI (A549 NSCLC): > 100 µM
GI50 (OVCAR-5 ovarian): 19.9 µM
TGI (OVCAR-5 ovarian): 55.1 µM
GI50 (MCF7 breast): 15.6 µM
TGI (MCF7 breast): 86.3 µM
GI50 (CAKI-1 renal): 20.8 µM
TGI (CAKI-1 renal): 99.3 µM
GI50 (NCI-H460 lung): 17.2 µM
TGI (NCI-H460 lung): 47.8 µM
GI50 (SK-MEL-2 melanoma): 16.8 µM
TGI (SK-MEL-2 melanoma): 36 µM
GI50 (T-47D breast): 23.4 µM
TGI (T-47D breast): > 100 µM
GI50 (HOP-92 NSCLC): 20.6 µM
TGI (HOP-92 NSCLC): 69.1 µM
GI50 (UACC-62 melanoma): 15.3 µM
TGI (UACC-62 melanoma): 30.8 µM
GI50 (SN12C renal): 14.9 µM
TGI (SN12C renal): 40.4 µM
GI50 (SF-295 CNS): 14.8 µM
TGI (SF-295 CNS): 46.4 µM
GI50 (DU-145 prostate): 12.5 µM
TGI (DU-145 prostate): 32.5 µM
GI50 (HT29 colon): 15.9 µM
TGI (HT29 colon): 31 µM
GI50 (M14 melanoma): 20.8 µM
TGI (M14 melanoma): 58.5 µM
GI50 (SNB-75 CNS): 12.9 µM
TGI (SNB-75 CNS): 26 µM
GI50 (HCC-2998 colon): 14.7 µM
TGI (HCC-2998 colon): 28.6 µM
GI50 (OVCAR-3 ovarian): 29 µM
TGI (OVCAR-3 ovarian): > 100 µM
GI50 (RPMI-8226 leukemia): 16 µM
TGI (RPMI-8226 leukemia): 54.8 µM
GI50 (K-562 leukemia): 8.29 µM
TGI (K-562 leukemia): > 100 µM
GI50 (COLO 205 colon): 16.9 µM
TGI (COLO 205 colon): 31.6 µM
GI50 (HS 578T breast): 33.7 µM
TGI (HS 578T breast): > 100 µM
GI50 (786-0 renal): 19.1 µM
TGI (786-0 renal): 47.3 µM
GI50 (PC-3 prostate): 18.4 µM
TGI (PC-3 prostate): 49.5 µM
GI50 (BT-549 breast): 13.6 µM
TGI (BT-549 breast): 29.9 µM
GI50 (KM12 colon): 18.1 µM
TGI (KM12 colon): 41.8 µM
GI50 (A498 renal): 21.3 µM
